Series [1] in a line: in vitro. Type of series: cell-based. As to conditions: human, hela cells. How it is done: Maintenance media (Eagle's MEM media supplemented with 2% bovine serum albumin) containing compounds 1-13 or Ribavirin (control drug) at various concentrations, a HeLa cell suspension prepared in advance by digestion with trypsin, and maintenance media containing RS virus Long strain were plated in 96 well round-bottom microplates, and centrifuged at a low speed (700×g) for 5 minutes at room temperature. After the completion of the centrifugation, the media were incubated in a CO2 gas incubator at 35° C. for 5 days. The MTT [3-(4,5-dimethylthiazol-2-yl)-2,5-diphenyltetrazolium bromide] solution was added to the media at 4 hours before the completion of the incubation, and the proportion of viable cells was colorimetrically determined on a microplate reader. The concentration of the compound at which cell destruction by RS virus infection was inhibited by 50% is shown as antiviral activity (EC50). In addition, 50% cytotoxicity value (CC50) of the compound was calculated from the tests run concurrently without inoculation of RS virus. The ratio of CC50 to EC50 was determined as S.I. (selectivity index, CC50 /EC50).

Series [2] in a line: in vitro. The format is cell-based. The following applies: human, hela cells. The procedure: (§1) The confluently grown HeLa cells in 24 well flat-bottom multitrays were inoculated with RS virus Long strain prepared in a maintenance medium (Eagle's MEM medium supplemented with 2% bovine serum albumin), and the cells were incubated in a CO2 gas incubator at 35° C. for one hour. Culture solution was discarded and the cells were washed with a maintenance medium. Then, maintenance media (supplemented with 0.6% methylcellulose) containing Compound 1 or Ribavirin (control drug) at various concentrations were added, and the media were incubated in a CO2 gas incubator at 35° C. for 4 days. After the completion of the incubation, the cells were fixed with a 5% aqueous formalin solution for 6 hours and washed with tap water. Then, the cells were stained with a 0.025% aqueous crystal violet solution. The infected cell plaques which were not stained with crystal violet were microscopically counted. The plaques formed using the compound at various concentrations and those of control group without the compound were counted, and the concentration of the compound at which the number of plaques was decreased by 50% is shown as an antiviral activity (EC50). In addition, 50% cytotoxicity (CC50) of the compound was calculated by the MTT method. The ratio of CC50 to EC50 was determined as S.I. (selectivity index, CC50 /EC50).
This is another data set of the same source.

Series [3] relates to RS virus. Nature of the series: Suppression of RS virus assayed by plaque reduction method (Experimental Example 2). Type of series: cell-based, RS virus Long strain. The following applies: for EC50: 96 h, concentration decreasing number of plaques by 50%, HeLa cells, 35° C., 4 days; for S.I. (selectivity index, CC50/EC50): ratio of CC50 to EC50, plaque reduction method. How it is done: as §1

Series [4] has as its system RS virus. Nature of the series: Suppression of RS virus assayed by the MTT method (Experimental Example 1). The format is cell-based, RS virus Long strain. The following applies: for EC50: 120 h, concentration inhibiting HeLa cell destruction by RS virus infection by 50%, 35° C., 5 days, MTT; for S.I. (selectivity index, CC50/EC50): ratio of CC50 to EC50, MTT method. The procedure:
After the completion of the centrifugation, the media were incubated in a CO2 gas incubator at 35° C. for 5 days. The MTT [3-(4,5-dimethylthiazol-2-yl)-2,5-diphenyltetrazolium bromide] solution was added to the media at 4 hours before the completion of the incubation, and the proportion of viable cells was colorimetrically determined on a microplate reader. The concentration of the compound at which cell destruction by RS virus infection was inhibited by 50% is shown as antiviral activity (EC50). In addition, 50% cytotoxicity value (CC50) of the compound was calculated from the tests run concurrently without inoculation of RS virus. The ratio of CC50 to EC50 was determined as S.I. (selectivity index, CC50 /EC50).

For series [5] the following is noted: background art; cited from earlier work.
Series [6] deals with RS virus. The following applies: background art; cited from earlier work.

Values after ≈ are worked out from the molar mass of the structure shown.

For `c1ccc2c(c1)CSSC2` [Compound 1, 1,4-dihydro-2,3-benzodithiin], in “in vitro [1]”, it took 43 µg/mL (≈ 256 µM) to reach half-maximal cytotoxicity (CC50 at 120 h). The CC50 (as a rule, the concentration at which the toxic effect on the cells reaches its halfway point) in “in vitro [2]” was 44.7 µg/mL (≈ 266 µM). In the series with RS virus [3], the EC50 (in general, the midpoint of the concentration-response curve) is 1.7 µg/mL (≈ 10.1 µM) and the “S.I. (selectivity index, CC50/EC50)” value was found to be 26.29. In the series with RS virus [4], the concentration for a half-maximal effect (EC50) worked out at 0.3 µg/mL (≈ 1.78 µM) and the “S.I. (selectivity index, CC50/EC50)” value was 143.3.

As to `O=[N+]([O-])c1ccc2c(c1)CSSC2` [Compound 2, 1,4-dihydro-6-nitro-2,3-benzodithiin], in the series “in vitro [1]”, half-maximal cytotoxicity (CC50 at 120 h) was put at 8.9 µg/mL (≈ 41.7 µM). In the series on RS virus [4], the EC50 is 1.9 µg/mL (≈ 8.91 µM) and the “S.I. (selectivity index, CC50/EC50)” value was determined as 4.7.

The molecule `Nc1ccc2c(c1)CSSC2` [Compound 3, 6-amino-1,4-dihydro-2,3-benzodithiin] yielded a CC50 at 120 h in “in vitro [1]” of 5.1 µg/mL (≈ 27.8 µM). Moreover, in the series on RS virus [4], the response was half-maximal at 3 µg/mL (≈ 16.4 µM) (EC50) and the “S.I. (selectivity index, CC50/EC50)” value was determined as 1.7.

In the case of `COC(=O)c1ccc2c(c1)CSSC2` [Compound 4, methyl 1,4-dihydro-2,3-benzodithiin-6-carboxylate], in the series “in vitro [1]”, the cytotoxic concentration (CC50) at 120 h came out at 9.7 µg/mL (≈ 42.9 µM). In addition, in the series with RS virus [4], the EC50 amounted to 1.8 µg/mL (≈ 7.95 µM) and the “S.I. (selectivity index, CC50/EC50)” value turned out to be 5.4.

With `O=C(O)c1ccc2c(c1)CSSC2` [Compound 5, 1,4-dihydro-2,3-benzodithiin-6-carboxylic acid], it took 47.2 µg/mL (≈ 222 µM) to reach half-maximal cytotoxicity in “in vitro [1]” (CC50 at 120 h). In the series on RS virus [4], the concentration for a half-maximal effect (EC50) was 11.8 µg/mL (≈ 55.6 µM) and the “S.I. (selectivity index, CC50/EC50)” value is 4.0.

In “in vitro [1]”, `Cc1ccc2c(c1)CSSC2` [Compound 6, 1,4-dihydro-6-methyl-2,3-benzodithiin] showed a CC50 at 120 h of 44.7 µg/mL (≈ 245 µM). For the same molecule, in the series with RS virus [4], the EC50 was determined as 0.2 µg/mL (≈ 1.1 µM) and the “S.I. (selectivity index, CC50/EC50)” value was found to be 224.

As for `c1ccc(COc2ccc3c(c2)CSSC3)cc1` [Compound 7, 6-benzyloxy-1,4-dihydro-2,3-benzodithiin], the midpoint of cytotoxicity in the series “in vitro [1]”, the CC50 at 120 h, lay at 9.6 µg/mL (≈ 35 µM). The EC50 in the series with RS virus [4] was over 9.6 µg/mL.

For the molecule `COc1ccc2c(c1)CSSC2` [Compound 8, 1,4-dihydro-6-methoxy-2,3-benzodithiin], the CC50 at 120 h in the series “in vitro [1]” came to 12.8 µg/mL (≈ 64.5 µM). Also, in the series on RS virus [4], the response was half-maximal at 1.6 µg/mL (≈ 8.07 µM) (EC50) and the “S.I. (selectivity index, CC50/EC50)” value is 8.0.

`Fc1ccc2c(c1)CSSC2` [Compound 9, 1,4-dihydro-6-fluoro-2,3-benzodithiin] showed a CC50 at 120 h in the series “in vitro [1]” of 57.7 µg/mL (≈ 310 µM). For the same molecule, in the series on RS virus [4], the response was half-maximal at 0.8 µg/mL (≈ 4.29 µM) (EC50) and the “S.I. (selectivity index, CC50/EC50)” value amounted to 72.1.

In the series “in vitro [1]”, `Fc1cccc2c1CSSC2` [Compound 10, 1,4-dihydro-5-fluoro-2,3-benzodithiin] came in with a CC50 at 120 h of over 100 µg/mL. In addition, in the series on RS virus [4], the midpoint of the response, the EC50, lay at 1.1 µg/mL (≈ 5.91 µM) and the “S.I. (selectivity index, CC50/EC50)” value is recorded as over 90.9.

As to `Clc1ccc2c(c1)CSSC2` [Compound 11, 6-chloro-1,4-dihydro-2,3-benzodithiin], the CC50 at 120 h in “in vitro [1]” came to 16.8 µg/mL (≈ 82.9 µM). In the series on RS virus [4], the concentration giving a half-maximal response (EC50) was 1.7 µg/mL (≈ 8.39 µM) and the “S.I. (selectivity index, CC50/EC50)” value amounted to 9.9.

Regarding `CN(C)c1ccc2c(c1)CSSC2` [Compound 12, 1,4-dihydro-6-N,N-dimethylamino-2,3-benzodithiin], it took 33.3 µg/mL (≈ 158 µM) to reach half-maximal cytotoxicity in “in vitro [1]” (CC50 at 120 h). Also, in the series on RS virus [4], the EC50 was 2.3 µg/mL (≈ 10.9 µM) and the “S.I. (selectivity index, CC50/EC50)” value was found to be 14.5.

The molecule `CC(C)(C)c1ccc2c(c1)CSSC2` [Compound 13, 6-tert-butyl-1,4-dihydro-2,3-benzodithiin] came in with a CC50 at 120 h in the series “in vitro [1]” of 15.2 µg/mL (≈ 67.7 µM). In the series on RS virus [4], a half-maximal effect (EC50) was put at 6.5 µg/mL (≈ 29 µM) and the “S.I. (selectivity index, CC50/EC50)” value is given as 2.3.

For `NC(=O)c1ncn([C@@H]2O[C@H](CO)[C@@H](O)[C@H]2O)n1` [Ribavirin, reference compound], in series [5], the “teratogenicity, carcinogenicity and mutagenicity” value was “teratogenic, carcinogenic and mutagenic”; the toxicity result is recorded as “high toxicity”. In addition, the CC50 at 120 h in the series “in vitro [1]” is over 100 µg/mL. The CC50 in “in vitro [2]” was over 100 µg/mL. Also, in the series on RS virus [3], a half-maximal effect (EC50) was put at 3.7 µg/mL (≈ 15.2 µM) and the “S.I. (selectivity index, CC50/EC50)” value is 27.03. Besides, in the series on RS virus [4], the EC50 stood at 7.6 µg/mL (≈ 31.1 µM) and the “S.I. (selectivity index, CC50/EC50)” value is listed as 13.2. In the series on RS virus [6], the “effect against RS virus” value is “effective against RS virus”.

(Values after patent US5698580A, “Antiviral agent containing benzodithiin derivative as active ingredient” (Rational Drug Design Laboratories, priority 1994, dated 1997).)
